{
  "source": "paper PMC9247345",
  "about": "(Journal of medicinal chemistry, 2011)",
  "key": {"[1]": {"tested_on": "P. falciparum W2 (chloroquine and pyrimethamine resistant)", "assay": "in vitro antimalarial activity against W2", "type": "cell-based", "conditions": "for fold decrease in antimalarial activity: W2, compared to compound 5; for times less active against W2: in comparison to reference compound 17; for antimalarial activity in words: W2; for EC50: Plasmodium falciparum"}, "[2]": {"tested_on": "P. falciparum TM90-C2B (chloroquine, mefloquine, pyrimethamine and atovaquone resistant)", "assay": "in vitro antimalarial activity against TM90-C2B", "type": "cell-based", "conditions": "for fold decrease in antimalarial activity / antimalarial activity in words: TM90-C2B; for fold decrease in antimalarial activity: compared to compound 5; for EC50: Plasmodium falciparum; for fold more potent against TM90-C2B: compared to compound 27"}, "P. berghei": {"tested_on": "P. berghei", "conditions": "rodent malaria models; cited from earlier work"}},
  "note": "Like-named read-outs stand apart in the source and are kept apart here.",
  "data": [
    {"smiles": "CCCCc1cc2c(=O)cc(C)[nH]c2cc1OCCOc1ccccc1", "note": "[Compound 15]", "values": [
      {"measurement": "fold decrease in antimalarial activity", "setting": "[1]", "result": 4000, "unit": "fold"},
      {"measurement": "fold decrease in antimalarial activity", "setting": "[2]", "result": 4, "unit": "fold"}
    ]},
    {"smiles": "CCc1c(C)[nH]c2cc(OCOC)c(Cl)cc2c1=O", "note": "[Compound 20]", "values": [
      {"measurement": "times less active against W2", "setting": "[1]", "result": "approximately four-fold less active"}
    ]},
    {"smiles": "CCCCc1cc2c(=O)c(-c3cccnc3)c(C)[nH]c2cc1OCCOc1ccccc1", "note": "[Compound 33]", "values": [
      {"measurement": "antimalarial activity in words", "setting": "[1]", "result": "moderate activity in low μM or high nM range"},
      {"measurement": "antimalarial activity in words", "setting": "[2]", "result": "moderate activity in low μM or high nM range"}
    ]},
    {"smiles": "CCCCc1cc2c(=O)c(-c3ccncc3)c(C)[nH]c2cc1OCCOc1ccccc1", "note": "[Compound 32]", "values": [
      {"measurement": "antimalarial activity in words", "setting": "[1]", "result": "moderate activity in low μM or high nM range"},
      {"measurement": "antimalarial activity in words", "setting": "[2]", "result": "moderate activity in low μM or high nM range"}
    ]},
    {"smiles": "C[C@H]1[C@@H](O)O[C@@H]2O[C@@]3(C)CC[C@H]4[C@H](C)CC[C@@H]1[C@@]24OO3", "note": "[DHA, Dihydroartemisinin, reference compound]", "values": [
      {"measurement": "EC50", "setting": "[1]; W2, read-out: EC50 W2", "result": 1.8, "unit": "nM"},
      {"measurement": "EC50", "setting": "[2]; TM90, read-out: EC50 TM90-C2B, Table 1, PEQ analogs", "result": 0.9, "unit": "nM"},
      {"measurement": "EC50", "setting": "[2]; TM90, read-out: EC50 TM90-C2B, Table 2, 3-aryl PEQs", "result": 0.9, "unit": "nM"}
    ]},
    {"smiles": "O=C1C(O)=C([C@H]2CC[C@H](c3ccc(Cl)cc3)CC2)C(=O)c2ccccc21", "note": "[ATO, atovaquone, reference compound]", "values": [
      {"measurement": "EC50", "setting": "[1]; W2, read-out: EC50 W2, Table 1, PEQ analogs", "result": 0.53, "unit": "nM"},
      {"measurement": "EC50", "setting": "[1]; W2, read-out: EC50 W2, Table 2, 3-aryl PEQs", "result": 0.53, "unit": "nM"}
    ]},
    {"smiles": "CCc1c(C)[nH]c2cc(OCCOc3ccccc3)c(C)cc2c1=O", "note": "[Compound 18]", "values": [
      {"measurement": "fold more potent against TM90-C2B", "setting": "[2]", "result": "approximately 3 fold"}
    ]},
    {"smiles": "CCc1c(C)[nH]c2cc(OCCOc3ccccc3)c(OC)cc2c1=O", "note": "[Compound 19]", "values": [
      {"measurement": "fold more potent against TM90-C2B", "setting": "[2]", "result": "approximately 3 fold"}
    ]},
    {"smiles": "CCCCc1cc2c(=O)c(C(=O)OC)c[nH]c2cc1OCCOc1ccccc1", "note": "[Compound 5, reference compound]", "values": [
      {"measurement": "ED50, causal prophylactic and blood schizonticidal activity", "setting": "P. berghei", "result": 0.05, "unit": "mg/kg"},
      {"measurement": "fold stronger inhibition of W2 than TM90-C2B", "setting": "[1]; W2 versus TM90-C2B", "result": "approximately 220 fold"}
    ]},
    {"smiles": "CCCCc1cc2c(=O)c(-c3c(C)noc3C)c(C)[nH]c2cc1OCCOc1ccccc1", "note": "[Compound 43]", "values": [
      {"measurement": "antimalarial activity in words", "setting": "[2]", "result": "approximately five times less potent"}
    ]},
    {"smiles": "COC(=O)c1c[nH]c2cc(OC)c(Cl)cc2c1=O", "note": "[Compound 14]", "values": [
      {"measurement": "fold decrease in antimalarial activity", "setting": "[1]", "result": "≥ 70", "unit": "fold"},
      {"measurement": "fold decrease in antimalarial activity", "setting": "[2]", "result": "≥ 70", "unit": "fold"}
    ]},
    {"smiles": "CCc1c(C)[nH]c2cc(OCCCN3CCN(c4ccccc4)CC3)c(Cl)cc2c1=O", "note": "[Compound 26]", "values": [
      {"measurement": "times less active against W2", "setting": "[1]", "result": "approximately four-fold less active"}
    ]}
  ]
}
